Laboratory results reported in patent US20100267561A1, “HERBICIDAL PYRIDAZINONE DERIVATIVES” (priority 2007, published 2010).

Assays:
Format in all cases: in vivo
[1] = system: giant foxtail (Setaria faberi); experiment: Test A pre-/postemergence plant response
In short: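 Greenhouse pot test: loam–sand soil; pre- and postemergence sprays applied same day; post plants 2–10 cm, 1–2 leaves. Readout ~10 d, visual % injury vs untreated (0 = none, 100 = complete control).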

[2] = system: bermudagrass (Cynodon dactylon); experiment: Test B pre-/postemergence plant response; conditions: for Bermudagrass plant response rating: 8 g ai/ha
In short: (§1)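 Visual scoring from 0 (no effect) to 100 (complete control) against untreated controls was done 13 to 15 days after greenhouse treatment. Chemicals were formulated in a surfactant-containing non-phytotoxic solvent and applied to soil preemergence or to 1- to 4-leaf (2-18 cm) plants postemergence.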

[3] = system: blackgrass (Alopecurus myosuroides); experiment: Test B pre-/postemergence plant response; conditions: for Blackgrass plant response rating: 8 g ai/ha
In short: as §1

[4] = system: common (oilseed) sunflower (Helianthus annuus); experiment: Test B pre-/postemergence plant response; conditions: Preemergence; for Sunflower plant response rating: scale 0 to 100
In short: as §1

[5] = system: downy bromegrass (Bromus tectorum); experiment: Test B pre-/postemergence plant response; conditions: for Bromegrass, Downy plant response rating: 8 g ai/ha
In short: as §1

[6] = system: giant foxtail (Setaria faberii); experiment: Test B pre-/postemergence plant response
In short: as §1

[7] = system: goosegrass (Eleusine indica); experiment: Test B pre-/postemergence plant response
In short: as §1

[8] = system: johnsongrass (Sorghum halepense); experiment: Test B pre-/postemergence plant response
In short: as §1

[9] = system: pigweed (Amaranthus retroflexus); experiment: Test B pre-/postemergence plant response
In short: as §1

soybean (Glycine max) = experiment: Test B pre-/postemergence plant response
In short: as §1

[10] = system: velvetleaf (Abutilon theophrasti); experiment: Test B pre-/postemergence plant response
In short: as §1

[11] = system: wheat (Triticum aestivum); experiment: Test B pre-/postemergence plant response
In short: as §1

[12] = Postemergence, 16 g ai/ha, scale 0 to 100
[13] = Postemergence, 31 g ai/ha, scale 0 to 100
[14] = Postemergence, 62 g ai/ha, scale 0 to 100, 0 no effect, 100 complete control
[15] = Preemergence, 16 g ai/ha, scale 0 to 100 (0 no effect, 100 complete control)
[16] = Preemergence, 31 g ai/ha, scale 0 to 100 (0 no effect, 100 complete control)
[17] = Preemergence, 62 g ai/ha, 0 to 100 scale, 0 no effect, 100 complete control
[18] = 8 g ai/ha, postemergence, 0-100 scale
[19] = Preemergence, 8 g ai/ha, scale 0 to 100
[20] = Preemergence, 16 g ai/ha, scale 0 to 100

Cc1cc(-c2ccc(Cl)cc2)nn1-c1c(OC(=O)OCC(C)C)cnn(C)c1=O [Compound 57]
Plant response rating, Foxtail, Giant ([1]; Postemergence, 31 g ai/ha, 0 to 100 scale (0 no effect, 100 complete control)): 0 | Plant response rating, Foxtail, Giant ([1]; Postemergence, 125 g ai/ha, 0 to 100 scale, 0 no effect, 100 complete control): 90 | Plant response rating, Foxtail, Giant ([1]; Preemergence, 31 g ai/ha, 0 to 100 scale, 0 is no effect, 100 is complete control): 90 | Plant response rating, Foxtail, Giant ([1]; Preemergence, 125 g ai/ha, 0 to 100 scale (0 no effect, 100 complete control)): 100 | Bermudagrass plant response rating ([2]; postemergence, 0-100 scale): 65 | Plant response rating, Bermudagrass [2, 12]: 85 | Plant response rating, Bermudagrass [2, 13]: 98 | Plant response rating, Bermudagrass [2, 14]: 100 | Bermudagrass plant response rating ([2]; Preemergence, scale 0 to 100 (0 no effect, 100 complete control)): 100 | Plant response rating, Bermudagrass [2, 15]: 100 | Plant response rating, Bermudagrass [2, 16]: 100 | Plant response rating, Bermudagrass [2, 17]: 100 | Blackgrass plant response rating ([3]; postemergence, 0-100 scale): 40 | Plant response rating, Blackgrass [3, 12]: 80 | Plant response rating, Blackgrass [3, 13]: 80 | Plant response rating, Blackgrass [3, 14]: 95 | Plant response rating, Blackgrass [3, 15]: 100 | Plant response rating, Blackgrass [3, 16]: 100 | Plant response rating, Blackgrass [3, 17]: 100 | Blackgrass plant response rating ([3]; Preemergence, scale 0 to 100): 40 | Plant response rating, Sunflower ([4]; 31 g ai/ha, scale 0 to 100 (0 no effect, 100 complete control)): 0 | Plant response rating, Sunflower ([4]; 62 g ai/ha, 0 to 100 scale, 0 no effect, 100 complete control): 0 | Sunflower plant response rating ([4]; 8 g ai/ha): 0 | Sunflower plant response rating ([4]; 16 g ai/ha): 0 | Bromegrass, Downy plant response rating ([5]; postemergence, 0-100 scale): 0 | Plant response rating, Bromegrass, Downy [5, 12]: 20 | Plant response rating, Bromegrass, Downy [5, 13]: 50 | Plant response rating, Bromegrass, Downy [5, 14]: 60 | Plant response rating, Bromegrass, Downy [5, 15]: 0 | Plant response rating, Bromegrass, Downy [5, 16]: 65 | Plant response rating, Bromegrass, Downy [5, 17]: 70 | Bromegrass, Downy plant response rating ([5]; Preemergence, scale 0 to 100): 0 | Foxtail, Giant plant response rating [6, 18]: 80 | Plant response rating, Foxtail, Giant [6, 12]: 95 | Plant response rating, Foxtail, Giant [6, 13]: 98 | Plant response rating, Foxtail, Giant [6, 14]: 100 | Plant response rating, Foxtail, Giant [6, 16]: 100 | Plant response rating, Foxtail, Giant [6, 17]: 100 | Foxtail, Giant plant response rating [6, 19]: 98 | Foxtail, Giant plant response rating [6, 20]: 98 | Goosegrass plant response rating [7, 18]: 65 | Plant response rating, Goosegrass [7, 12]: 80 | Plant response rating, Goosegrass [7, 13]: 85 | Plant response rating, Goosegrass [7, 14]: 90 | Plant response rating, Goosegrass [7, 16]: 98 | Plant response rating, Goosegrass [7, 17]: 100 | Goosegrass plant response rating [7, 19]: 0 | Goosegrass plant response rating [7, 20]: 0 | Johnsongrass plant response rating [8, 18]: 15 | Plant response rating, Johnsongrass [8, 12]: 65 | Plant response rating, Johnsongrass [8, 13]: 90 | Plant response rating, Johnsongrass [8, 14]: 100 | Plant response rating, Johnsongrass [8, 16]: 90 | Plant response rating, Johnsongrass [8, 17]: 100 | Johnsongrass plant response rating [8, 19]: 65 | Johnsongrass plant response rating [8, 20]: 90 | Pigweed plant response rating [9, 18]: 0 | Plant response rating, Pigweed [9, 12]: 0 | Plant response rating, Pigweed [9, 13]: 0 | Plant response rating, Pigweed [9, 14]: 0 | Plant response rating, Pigweed [9, 16]: 0 | Plant response rating, Pigweed [9, 17]: 0 | Pigweed plant response rating [9, 19]: 0 | Pigweed plant response rating [9, 20]: 0 | Soybean plant response rating (soybean (Glycine max); [18]): 0 | Plant response rating, Soybean (soybean (Glycine max); [12]): 0 | Plant response rating, Soybean (soybean (Glycine max); [13]): 0 | Plant response rating, Soybean (soybean (Glycine max); [14]): 0 | Plant response rating, Soybean (soybean (Glycine max); [16]): 0 | Plant response rating, Soybean (soybean (Glycine max); [17]): 0 | Soybean plant response rating (soybean (Glycine max); [19]): 0 | Soybean plant response rating (soybean (Glycine max); [20]): 0 | Velvetleaf plant response rating [10, 18]: 0 | Plant response rating, Velvetleaf [10, 12]: 0 | Plant response rating, Velvetleaf [10, 13]: 0 | Plant response rating, Velvetleaf [10, 14]: 0 | Plant response rating, Velvetleaf [10, 16]: 0 | Plant response rating, Velvetleaf [10, 17]: 0 | Velvetleaf plant response rating [10, 19]: 0 | Velvetleaf plant response rating [10, 20]: 0 | Wheat plant response rating [11, 18]: 30 | Plant response rating, Wheat [11, 12]: 45 | Plant response rating, Wheat [11, 13]: 90 | Plant response rating, Wheat [11, 14]: 90 | Plant response rating, Wheat [11, 16]: 40 | Plant response rating, Wheat [11, 17]: 50 | Wheat plant response rating [11, 20]: 15
